Results on 11 compounds are retold here after ChEMBL document CHEMBL1201862, “PubChem BioAssay data set” (2004).

Some test systems named below: 786-0; BT-549; EKVX; HCT-15; HOP-92; Hs-578T; KM12; LOX IMVI; MOLT-4; Malme-3M; NCI-H226; NCI-H460; OVCAR-3; RXF 393; SF-268; SK-MEL-5; SR; UACC-62; UO-31; PC-3.
Holding throughout (experiment): growth of human tumour cells (NCI), 48 h

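How tested: cells in 96-well plates exposed to compound for 48 hours at five concentrations. At the GI50, growth is halved.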 Calls of active or inactive are those of the source. Cut-off read from the data, not from the text of the source: active = GI50 up to about 1.1 µM and inactive = higher. A value given as a limit tells only on which side of the number the result lay.

As for `CC(C)(C)OC(=O)NC(CCC(=O)OCc1ccccc1)C(=O)NCCCO` (stereo not drawn), the GI50 with 786-0 was > 100 µM (inactive); with BT-549 it was > 100 µM (inactive); with EKVX, > 100 µM (inactive); with HCT-15, over 100 µM; in the experiment on HOP-92, > 100 µM (inactive); in the experiment with Hs-578T it was > 100 µM (inactive). Also, the GI50 with KM12, in the experiment with LOX IMVI, in the experiment on MOLT-4, with Malme-3M, in the experiment with NCI-H226 and in the experiment on NCI-H460 was > 100 µM (inactive) in each case. Besides, the GI50 with OVCAR-3, with RXF 393, in the experiment on SF-268, in the experiment on SK-MEL-5, in the experiment with SR and with UACC-62 was > 100 µM (inactive) each time. For the same compound, the GI50 in the experiment with UO-31 was > 100 µM (inactive).

For the compound `C[C@]12CC[C@@H]3c4ccc(O)cc4CC[C@H]3[C@@H]1C/C(=C\c1ccc([N+](=O)[O-])cc1)C2=O`, the GI50 with 786-0 is > 100 µM (inactive); in the experiment with BT-549 it was > 100 µM (inactive); in the experiment on EKVX, 52.6 µM (inactive); in the experiment with HCT-15, 67 µM; in the experiment with KM12, 42.6 µM (inactive); with LOX IMVI it was 36.6 µM (inactive). In addition, the GI50 was > 100 µM (inactive) with MOLT-4; 67.6 µM (inactive) in the experiment with Malme-3M; 71.6 µM (inactive) with NCI-H226; 48 µM (inactive) in the experiment with NCI-H460; 74 µM (inactive) with OVCAR-3; 37.2 µM (inactive) with PC-3. Besides, the GI50 in the experiment with RXF 393 is 15.9 µM (inactive); with SF-268, 52.6 µM (inactive); with SK-MEL-5 it was 41.5 µM (inactive); in the experiment on SR it was 65.3 µM (inactive); in the experiment on UACC-62, 37.8 µM (inactive); with UO-31 it was 77.1 µM (inactive).

For `COC(=O)C1Cc2c([nH]c3ccccc23)-c2[nH]c3ccccc3c2CC(NC(C)=O)C(=O)N2CCCC2C(=O)N1` (stereo not drawn), the GI50 was > 100 µM (inactive) in the experiment on 786-0; > 100 µM (inactive) in the experiment on EKVX; over 100 µM in the experiment on HCT-15; > 100 µM (inactive) in the experiment on Hs-578T; > 100 µM (inactive) in the experiment on LOX IMVI; 66.7 µM (inactive) in the experiment with MOLT-4. The GI50 in the experiment on NCI-H226 was 0.176 µM (active); in the experiment on NCI-H460, > 100 µM (inactive); with OVCAR-3 it was > 100 µM (inactive); in the experiment with PC-3 it was > 100 µM (inactive); in the experiment on RXF 393 it was > 100 µM (inactive); in the experiment on SF-268 it was > 100 µM (inactive). The GI50 in the experiment on SK-MEL-5, in the experiment with SR, with UACC-62 and in the experiment on UO-31 was > 100 µM (inactive) each time.

As to `O=C(c1ccccc1)c1ccc(COc2ccc(C(c3c(O)c4ccccc4oc3=O)c3c(O)c4ccccc4oc3=O)cc2)cc1`, the GI50 was 23.6 µM (inactive) in the experiment with 786-0; 19.8 µM (inactive) in the experiment on EKVX; 37.3 µM in the experiment on HCT-15; 29.4 µM (inactive) with Hs-578T; 16.1 µM (inactive) with KM12; 23.9 µM (inactive) with LOX IMVI. The GI50 with MOLT-4 was 18.7 µM (inactive); in the experiment with NCI-H226, 0.173 µM (active); with NCI-H460, 19.9 µM (inactive); in the experiment on OVCAR-3 it was 18.9 µM (inactive); in the experiment with PC-3, 18.3 µM (inactive); with RXF 393, 19 µM (inactive). The GI50 is 31.9 µM (inactive) in the experiment on SF-268; 18.8 µM (inactive) with SK-MEL-5; 35.9 µM (inactive) in the experiment on SR; 14 µM (inactive) with UACC-62; 27.7 µM (inactive) in the experiment on UO-31.

Regarding `O=C(CC(=O)Nc1ccccc1)N/N=C/c1cc(/N=N/c2ccc(Br)cc2)ccc1O`, the GI50 in the experiment with 786-0 is 4 µM (inactive); in the experiment with BT-549, > 10 µM (inactive); in the experiment with EKVX it was 3.97 µM (inactive); with HCT-15 it was 3.33 µM; in the experiment with HOP-92, > 10 µM (inactive); in the experiment on Hs-578T, > 10 µM (inactive). In addition, the GI50 in the experiment with KM12 was 3.58 µM (inactive); in the experiment on LOX IMVI, 4.28 µM (inactive); in the experiment with MOLT-4 it was 1.35 µM (inactive); with Malme-3M, 5.93 µM (inactive); with NCI-H460, 3.28 µM (inactive); in the experiment with SF-268 it was 4.5 µM (inactive). Moreover, the GI50 with SK-MEL-5 was 8.79 µM (inactive); in the experiment with SR, 1.39 µM (inactive); in the experiment with UACC-62 it was 2.28 µM (inactive); in the experiment on UO-31, 2.42 µM (inactive).

For `CCC12CN(C(=O)OC)C3C(Br)C1CCC(=O)C32` (stereo not drawn), the GI50 with 786-0 was > 100 µM (inactive); in the experiment on EKVX, > 100 µM (inactive); in the experiment on HCT-15, over 100 µM; with HOP-92 it was > 100 µM (inactive); with Hs-578T, > 100 µM (inactive); in the experiment on KM12, > 100 µM (inactive). The GI50 in the experiment with LOX IMVI, in the experiment on MOLT-4, in the experiment on Malme-3M, in the experiment with NCI-H226, with NCI-H460 and with OVCAR-3 was > 100 µM (inactive) each time. Also, the GI50 in the experiment on PC-3, in the experiment on RXF 393, in the experiment on SF-268, in the experiment with SK-MEL-5, in the experiment on SR and with UACC-62 was > 100 µM (inactive) each time. For the same compound, the GI50 with UO-31 was > 100 µM (inactive).

With `Cc1cc2c(cc1Cl)SC(NS(=O)(=O)c1ccc(Cl)cc1)=NS2(=O)=O`, the GI50 with 786-0 was > 100 µM (inactive); in the experiment on BT-549, 42.7 µM (inactive); in the experiment on EKVX it was 38.4 µM (inactive); in the experiment with HCT-15, over 100 µM; with HOP-92, 16 µM (inactive); in the experiment on Hs-578T, 41.5 µM (inactive). Further, the GI50 was > 100 µM (inactive) with KM12; 49.2 µM (inactive) in the experiment with LOX IMVI; 16.9 µM (inactive) in the experiment on MOLT-4; 33.5 µM (inactive) in the experiment on NCI-H226; 79.8 µM (inactive) in the experiment on NCI-H460; 19.3 µM (inactive) with OVCAR-3. Moreover, the GI50 is 13.6 µM (inactive) in the experiment with RXF 393; 85.9 µM (inactive) with SF-268; 46 µM (inactive) in the experiment on SK-MEL-5; 10.3 µM (inactive) in the experiment on SR; > 100 µM (inactive) in the experiment with UACC-62; > 100 µM (inactive) in the experiment on UO-31.

Consider `CCOC(=O)c1ccc(Nc2c3c(nc4ccccc24)CCCC3)cc1`, for which the GI50 in the experiment with 786-0 was 29.2 µM (inactive); in the experiment on EKVX it was > 54.2 µM (inactive); with HCT-15, 7.13 µM; in the experiment on HOP-92, 18.1 µM (inactive); in the experiment on Hs-578T, 27.5 µM (inactive); with KM12 it was 3.54 µM (inactive). Moreover, the GI50 was > 21.2 µM (inactive) with LOX IMVI; 3.22 µM (inactive) in the experiment on MOLT-4; > 100 µM (inactive) in the experiment on NCI-H226; 43.2 µM (inactive) in the experiment on NCI-H460; > 100 µM (inactive) in the experiment on OVCAR-3; > 47.5 µM (inactive) with PC-3. Moreover, the GI50 was 33.9 µM (inactive) with RXF 393; 76.2 µM (inactive) in the experiment with SF-268; > 42.5 µM (inactive) in the experiment with SK-MEL-5; 25.4 µM (inactive) in the experiment with SR; 30.3 µM (inactive) with UACC-62; > 34.3 µM (inactive) in the experiment with UO-31.

With `CC#CCCN(CC#N)Cc1ccccc1`, the GI50 with 786-0 was > 100 µM (inactive); in the experiment on EKVX, > 100 µM (inactive); in the experiment on HCT-15 it was over 100 µM; in the experiment with HOP-92 it was > 100 µM (inactive); with Hs-578T it was > 100 µM (inactive); in the experiment with KM12 it was > 100 µM (inactive). The GI50 with LOX IMVI, in the experiment with MOLT-4, with Malme-3M, with NCI-H226, in the experiment with NCI-H460 and in the experiment with PC-3 was > 100 µM (inactive) throughout. In addition, the GI50 in the experiment with RXF 393 is > 100 µM (inactive); with SF-268 it was > 100 µM (inactive); in the experiment with SK-MEL-5, > 100 µM (inactive); in the experiment on SR, > 100 µM (inactive); in the experiment on UACC-62 it was 18.1 µM (inactive); in the experiment on UO-31, > 100 µM (inactive).

`COc1ccc2c(c1)CC[C@@H]1[C@@H]2CC[C@]2(C)C(=O)/C(=C/c3ccc(N(C)C)cc3)C[C@@H]12`: the GI50 was 29.2 µM (inactive) with 786-0; 29.1 µM (inactive) in the experiment on BT-549; 63.5 µM (inactive) in the experiment with EKVX; over 100 µM in the experiment with HCT-15; 24.2 µM (inactive) with HOP-92; 84.3 µM (inactive) in the experiment with KM12. For the same compound, the GI50 with MOLT-4 was > 100 µM (inactive); in the experiment with Malme-3M, 83.2 µM (inactive); with NCI-H460 it was 39.8 µM (inactive); with OVCAR-3 it was 23 µM (inactive); with PC-3, 47.2 µM (inactive); in the experiment with RXF 393, 27 µM (inactive). Also, the GI50 in the experiment with SF-268 is 32.4 µM (inactive); with SK-MEL-5, 73.1 µM (inactive); in the experiment with UACC-62, 32.6 µM (inactive); in the experiment on UO-31, 98.9 µM (inactive).

As to `COC(=O)[C@H](Cc1c[nH]c2ccccc12)NP(=O)(OCCC#N)OCC1OC(n2cc(C)c(=O)[nH]c2=O)CC1N=[N+]=[N-]` (stereo partly drawn), the GI50 in the experiment on 786-0 is > 100 µM (inactive); in the experiment with BT-549 it was > 100 µM (inactive); with EKVX, > 100 µM (inactive); in the experiment on HCT-15, over 100 µM; in the experiment on HOP-92, > 100 µM (inactive); with KM12 it was > 100 µM (inactive). The GI50 in the experiment on LOX IMVI, in the experiment with MOLT-4, in the experiment with Malme-3M, in the experiment on NCI-H226, in the experiment on NCI-H460 and with OVCAR-3 was > 100 µM (inactive) each time. In addition, the GI50 with PC-3, in the experiment on RXF 393, in the experiment with SF-268, with SK-MEL-5, with UACC-62 and with UO-31 was > 100 µM (inactive) in each case.
